Measurements as given in patent US20230357765A1, “USE OF LONG NON-CODING RNAS IN MEDULLOBLASTOMA” (THE JOHNS HOPKINS UNIVERSITY, priority 2020, published 2023).
l = locked nucleic acid (LNA); d = 2'-deoxy (DNA)

What was measured:
[1] = system: D425 Med and MED211 MB cells; assay: Cell proliferation assay, living cells counted by trypan blue staining; assay type: cell-based, human
Experimental: (§1) Cell Culture. Cell lines were authenticated using single tandem repeat profiling. D425 Med cells were cultured in DMEM/ F12 with 10% serum and 1% glutamate/penicillin/streptomycin. MED211 cells were cultured in medium composed of 30% Ham’s F12/70% DMEM, 1% antibiotic antimycotic, 20% B27 supplement, 5 µg/mL heparin, 20 ng/mL epidermal growth factor (EGF), and 20 ng/mL fibroblast growth factor 2. DAOY cells were cultured in DMEM with 10% serum and 1% glutamate/penicillin/streptomycin. All cells were grown in a humidified incubator at 37° C., 5% CO2. For blocking of bromodomain and extraterminal domain family (BET) bromodomain protein in D425 Med and MED211 cells, Jun Qi 1 (JQ1) (SML1524-5MG, Sigma Aldrich) was added, and the medium was changed every other day.
Cell Proliferation, Apoptosis, and 3D Colony Formation Assays. Cells were plated in 96-well plates at 5 × 10^3 cells per well in triplicate. After 72 hours of ASO or siRNA transfection, living cells were counted by trypan blue staining. Apoptotic cells were analyzed using a GloMax luminometer (Promega) with conditions optimized for the Caspase-Glo 3/7 Assay. […] Colony number was determined using the EVE cell counter (Nano Entek), and staining intensity was analyzed using ImageJ software.

MYC = MYC expression in JQ1-treated cells, qRT-PCR; assay type: cell-based, human; conditions: D425 Med and MED211 cells; JQ1 100 or 300 nM; relative to DMSO
Experimental: as §1
(§2) Quantitative Real-Time PCR. Total RNA was purified using the Direct-zol RNA Miniprep kit (Zymo Research). To obtain RNA from xenografts, tumor tissues were pulverized and then used for purification. Quantitative PCR was carried out using SYBR Green mRNA assays as previously described.^8 Primer sequences are listed in Tables 8-9 and Supplementary Table 2 (available online).
(§3) JQ1 Regulates lnc-HLX-2-7via MYC. […] In addition, downregulation of lnc-HLX-2-7 by JQ1 was also confirmed in vivo (FIGS. 10).

lnc-HLX-2-7 [2] = assay: lnc-HLX-2-7 expression in JQ1-treated cells, qRT-PCR; assay type: cell-based, human; conditions: D425 Med and MED211 cells; JQ1 100 or 300 nM; relative to DMSO
Experimental: as §1, §2, §3

[3] = system: D425 Med and MED211 intracranial xenografts; assay: Intracranial MB xenografts treated with JQ1, bioluminescence imaging and qPCR of tumors; assay type: in vivo, NOD-SCID mice; conditions: JQ1 50 mg/kg intraperitoneal on alternating days for 14 days; versus DMSO
Experimental: FIGS. 10A-10C. JQ1 regulates lnc-HLX-2-7 via MYC in vivo. (FIG. 10A) D425 Med and MED211 cells expressing luciferase were implanted into the […] of NOD-SCID mice. Seven days after injection, mice were administered DMSO or JQ1. Tumor formation was assessed by bioluminescence imaging. Changes in bioluminescent signal were examined weekly after tumor implantation. (FIG. 10B) Quantification of total photon counts from mice treated with JQ1 or DMSO. n=4, *p<0.05, Student’s t-test. (FIG. 10C) Expression levels of MYC and lnc-HLX-2-7 were examined by qPCR in DMSO or JQ1-treated mouse xenografts. Relative expression levels compared to those in the DMSO-treated tumor are indicated on the y-axis (n=4). Error bars indicate s.e.m. n=4, *p<0.01, Student’s t-test.
Medulloblastoma Xenografts (Intracranial). All mouse studies were approved and performed in accordance with the policies and regulations of the Animal Care and Use Committee of Johns Hopkins University. Intracranial MB xenografts were established by injecting D425 Med cells, MED211 cells, D425 Med cells with lnc- HLX-2-7 deleted, and MED211 cells with lnc-HLX-2-7 deleted into the cerebellums of NOD-SCID mice (Jackson Laboratory). […] Tumor growth was evaluated by weekly bioluminescence imaging using an in vivo spectral imaging system (IVIS Lumina II, Xenogen).

lnc-HLX-2-7 [4] = assay: ASO knockdown of lnc-HLX-2-7, expression by qRT-PCR; assay type: cell-based, human; conditions: D425 Med and MED211 cells; 50 nM ASO, Lipofectamine 3000; compared with ASO-Luc; P < 0.01
Experimental: FIGS. 48A-48C. Confirmation of ASO design and knockdown effect of lnc-HLX-2-7. (FIG. 48A) Diagram showing the sites targeted by each ASO. (FIGS. 48B-48C) Expression level of lnc-HLX-2-7in D425 Med (FIG. 48B) and MED211 (FIG. 48C) cells treated with ASO against the indicated genes on the x-axis. ASOs were transfected at 50 nM for 72 h using Lipofectamine 3000 (Thermo Fisher Scientific, Waltham MA). The efficiency was determined by qRT-PCR. Relative expression level to luciferase (Luc) gene is indicated on the y-axis. *p<0.01, Kruskal-Wallis analysis.
as §2
Antisense Oligonucleotides. Lnc-HLX-2-7 Antisense oligonucleotides (ASOs) were designed using the Integrated DNA Technologies (IDT) Antisense Design Tool (IDT). ASO knockdowns were performed with 50 nM (final concentration) locked nucleic acid (LNA) GapmeRs transfected with Lipofectamine 3000 (Thermo Fisher Scientific). All ASOs were modified with phosphorothioate (PS) linkages. […]

[5] = system: D425 Med and MED211 MB cells; assay: Apoptosis assay (Caspase-Glo 3/7); assay type: cell-based, human; conditions: 72 hours after ASO transfection, P < 0.01
Experimental: Cell Proliferation, Apoptosis, and 3D Colony Formation Assays. Cells were plated in 96-well plates at 5 × 10^3 cells per well in triplicate. After 72 hours of ASO or siRNA transfection, living cells were counted by trypan blue staining. Apoptotic cells were analyzed using a GloMax luminometer (Promega) with conditions optimized for the Caspase-Glo 3/7 Assay. For the 3D colony formation assay, cells were seeded in 24-well plates at a density of 1 × 10^2 cells/well and were stained with crystal violet solution approximately 14 days later. Colony number was determined using the EVE cell counter (Nano Entek), and staining intensity was analyzed using ImageJ software.

HLX = HLX expression after ASO treatment, qRT-PCR; assay type: cell-based, human; conditions: D425 Med and MED211 cells treated with ASO
From the text: FIG. 8. lnc-HLX-2-7regulates the expression of HLX coding gene. Expression levels of HLX in D425 Med and MED211 cells treated with ASO against the indicated genes in the x-axis. Relative expression level to mock is indicated in the y-axis. *p<0.01, Kruskal-Wallis analysis.
as §2
Antisense Oligonucleotides. Lnc-HLX-2-7 Antisense oligonucleotides (ASOs) were designed using the Integrated DNA Technologies (IDT) Antisense Design Tool (IDT). ASO knockdowns were performed with 50 nM (final concentration) locked nucleic acid (LNA) GapmeRs transfected with Lipofectamine 3000 (Thermo Fisher Scientific). All ASOs were modified with phosphorothioate (PS) linkages.

Row | Compound | cell growth (viable cell numbers) with JQ1 ([1]; effect suppressed by overexpression of lnc-HLX-2-7 (pcDNA4-lnc-HLX-2-7)) | MYC expression (MYC) | lnc-HLX-2-7 expression (lnc-HLX-2-7 [2]) | lnc-HLX-2-7 expression in xenograft tumors [3] | lnc-HLX-2-7 expression (lnc-HLX-2-7 [4]) | MB cell growth (viable cell numbers) ([1]; 72 hours after ASO transfection, P < 0.01) | apoptosis (apoptotic cell numbers) [5] | HLX expression (HLX)
1 | Cc1sc2c(c1C)C(c1ccc(Cl)cc1)=N[C@@H](CC(=O)OC(C)(C)C)c1nnc(C)n1-2 [JQ1, Jun Qi 1 (JQ1)] | cell growth inhibition | downregulated | downregulated | downregulation |  |  |  | 
2 | +T^∗+G^∗+A^∗G^∗A^∗G^∗A^∗T^∗T^∗A^∗A^∗T^∗C^∗T^∗A^∗G^∗A^∗T^∗+T^∗+G^∗+C (TGAGAGATTAATCTAGATTGC; sugars from the 5' end l3 d15 l3, all phosphorothioate, methylation of C not given here) [ASO-lnc-HLX-2-7] |  |  |  |  | significantly decreased | significantly suppressed | induced apoptosis | significantly reduced
